Columns and labels:
human orexin receptor 1 = human orexin receptor 1 (Homo sapiens (Human), UniProt O43613); assay: Orexin antagonist activity, intracellular calcium FLIPR assay, RBL-2H3 cells expressing human orexin receptor 1; format: cell-based; conditions: RBL-2H3 cells stably expressing human orexin receptor 1; orexin-A at approx. 80% maximal response; compound added 15 minutes before; read-out: Human Orexin1R IC50
human orexin receptor 2 = human orexin receptor 2 (Homo sapiens (Human), UniProt O43614); assay: Orexin antagonist activity, intracellular calcium FLIPR assay, RBL-2H3 cells expressing human orexin receptor 2; format: cell-based; conditions: RBL-2H3 cells stably expressing human orexin receptor 2; orexin-A at approx. 80% maximal response; compound added 15 minutes before; read-out: Human Orexin2R IC50
Sequence of human orexin receptor 2 (O43614 whole entry): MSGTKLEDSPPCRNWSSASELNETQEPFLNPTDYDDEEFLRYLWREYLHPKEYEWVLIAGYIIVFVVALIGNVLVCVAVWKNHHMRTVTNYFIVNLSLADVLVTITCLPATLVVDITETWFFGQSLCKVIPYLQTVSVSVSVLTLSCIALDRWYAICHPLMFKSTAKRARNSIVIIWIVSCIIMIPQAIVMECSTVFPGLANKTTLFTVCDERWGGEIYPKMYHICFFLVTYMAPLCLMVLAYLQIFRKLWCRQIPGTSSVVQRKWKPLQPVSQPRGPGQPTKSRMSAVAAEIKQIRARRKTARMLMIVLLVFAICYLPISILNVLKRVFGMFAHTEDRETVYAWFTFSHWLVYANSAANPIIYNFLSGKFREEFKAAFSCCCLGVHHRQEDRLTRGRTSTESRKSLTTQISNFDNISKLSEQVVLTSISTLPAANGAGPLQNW

Sequence of human orexin receptor 1 (O43613 whole entry): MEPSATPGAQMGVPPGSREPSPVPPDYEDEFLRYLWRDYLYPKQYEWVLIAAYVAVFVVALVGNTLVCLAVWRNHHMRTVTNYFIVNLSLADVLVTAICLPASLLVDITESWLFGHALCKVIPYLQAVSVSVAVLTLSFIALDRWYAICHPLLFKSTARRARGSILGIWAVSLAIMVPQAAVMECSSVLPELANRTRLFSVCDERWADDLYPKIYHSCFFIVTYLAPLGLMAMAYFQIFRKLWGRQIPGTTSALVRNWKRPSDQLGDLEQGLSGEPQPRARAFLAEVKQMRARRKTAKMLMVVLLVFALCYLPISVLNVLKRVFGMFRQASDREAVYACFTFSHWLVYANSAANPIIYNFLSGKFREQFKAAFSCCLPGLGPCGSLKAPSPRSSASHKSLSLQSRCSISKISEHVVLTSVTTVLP

Compound	IC50 (human orexin receptor 1) [nM]	IC50 (human orexin receptor 2) [nM]
O=C(N[C@H]1CCC[C@@H]1Oc1cc(C(F)(F)F)ccn1)c1ccccc1-n1nccn1 [Example 20, 2-(2H-1,2,3-Triazol-2-yl)-N-[(1S,2S)-2-{[4-(trifluoromethyl)pyridin-2-yl]oxy}cyclopentyl]benzamide]	875	> 10000
CC1(Nc2ccc(OC(F)(F)F)cn2)CCCC1NC(=O)c1ccccc1-n1nccn1 (stereo not shown) [Example 96, N-(2-Methyl-2-{[5-(trifluoromethoxy)pyridin-2-yl]amino}cyclopentyl)-2-(2H-1,2,3-triazol-2-yl)benzamide]	86	1360
C[C@]1(Nc2cnc(C(F)(F)F)cn2)CCC[C@@H]1NC(=O)c1c(Cl)cccc1-n1nccn1 [Example 87, 2-Chloro-N-[(1S,2S)-2-methyl-2-{[5-(trifluoromethyl)pyrazin-2-yl]amino}cyclopentyl]-6-(2H-1,2,3-triazol-2-yl)benzamide]	8	> 10000
O=C(N[C@H]1CCC[C@@H]1Nc1cnc(C(F)(F)F)cn1)c1ncccc1-n1cccn1 [Example 43, 3-(1H-Pyrazol-1-yl)-N-[(1S,2S)-2-{[5-(trifluoromethyl)pyrazin-2-yl]amino}cyclopentyl]pyridine-2-carboxamide]	289	> 10000
Cc1ccc(-n2nccn2)c(C(=O)N[C@H]2CCC[C@@H]2Nc2cnc(C(F)(F)F)cn2)c1 [Example 7, 5-Methyl-2-(2H-1,2,3-triazol-2-yl)-N-[(1S,2S)-2-{[5-(trifluoromethyl)pyrazin-2-yl]amino}cyclopentyl]benzamide]	51	> 10000
CN(c1cnc(C(F)(F)F)cn1)[C@H]1CCC[C@@H]1NC(=O)c1cc(F)ccc1-n1nccn1 [Example 74, 5-Fluoro-N-[(1S,2S)-2-{methyl[5-(trifluoromethyl)pyrazin-2-yl]amino}cyclopentyl]-2-(2H-1,2,3-triazol-2-yl)benzamide]	308	> 10000
O=C(N[C@H]1CCC[C@@H]1Nc1ncc(C(F)(F)F)cc1F)c1ncccc1-c1ncccn1 [Example 147, N-[(1S,2S)-2-{[3-Fluoro-5-(trifluoromethyl)pyridin-2-yl]amino}cyclopentyl]-3-(pyrimidin-2-yl)pyridine-2-carboxamide]	24	> 10000
O=C(NC1CC(F)(F)CC1Nc1cnc(C(F)(F)F)cn1)c1ccccc1-n1nccn1 (single isomer, unassigned) [Example 130, N-(4,4-Difluoro-2-{[5-(trifluoromethyl)pyrazin-2-yl]amino}cyclopentyl)-2-(2H-1,2,3-triazol-2-yl)benzamide]	77	

Results, then the compound that gave them:

IC50 (human orexin receptor 1) [nM]	IC50 (human orexin receptor 2) [nM]	Compound
59	> 10000	O=C(N[C@H]1CCC[C@@H]1Nc1ccc(C(F)(F)F)cn1)c1cc(F)ccc1-n1nccn1 [Example 10, 5-Fluoro-2-(2H-1,2,3-triazol-2-yl)-N-[(1S,2S)-2-{[5-(trifluoromethyl)pyridin-2-yl]amino}cyclopentyl]benzamide]
170	> 10000	O=C(N[C@H]1CCC[C@@H]1Nc1ccc(C(F)(F)F)cn1)c1ccccc1-n1cccn1 [Example 11, 2-(1H-Pyrazol-1-yl)-N-[(1S,2S)-2-{[5-(trifluoromethyl)pyridin-2-yl]amino}cyclopentyl]benzamide]
122	> 10000	O=C(N[C@H]1CCC[C@@H]1Nc1cnc(C(F)(F)F)cn1)c1ccccc1-n1cccn1 [Example 31, 2-(1H-Pyrazol-1-yl)-N-[(1S,2S)-2-{[5-(trifluoromethyl)pyrazin-2-yl]amino}cyclopentyl]benzamide]
93	> 10000	O=C(N[C@H]1CCC[C@@H]1Nc1cnc(C(F)(F)F)cn1)c1cccc(F)c1-n1nccn1 [Example 53, 3-Fluoro-2-(2H-1,2,3-triazol-2-yl)-N-[(1S,2S)-2-{[5-(trifluoromethyl)pyrazin-2-yl]amino}cyclopentyl]benzamide]
321	> 10000	O=C(N[C@H]1CCC[C@@H]1Nc1ccc(C(F)(F)F)cn1)c1ccccc1Cl [Example 69, 2-Chloro-N-[(1S,2S)-2-{[5-(trifluoromethyl)pyridin-2-yl]amino}cyclopentyl]benzamide]

Reference: patent publication US9156829B2, “Cycloalkyl and heterocycloalkyl compounds as orexin receptor antagonists” (Takeda Pharmaceutical Company Limited, priority 2014, dated 2015)
